Measured values published in the CheMixHub viscosity set.

Assay: xn = mol fraction of the nth substance listed

CN1CCCC1=O + O
Settings | viscosity [mPa·s]
293.15 K, 101 kPa, x1 = 0.6997 | 2.865
298.15 K, 101 kPa, x1 = 0.02 | 1.2
298.15 K, 101 kPa, x1 = 0.0505 | 1.809
298.15 K, 101 kPa, x1 = 0.0985 | 2.79
298.15 K, 101 kPa, x1 = 0.0997 | 2.778
298.15 K, 101 kPa, x1 = 0.1202 | 3.198
298.15 K, 101 kPa, x1 = 0.1503 | 3.914
298.15 K, 101 kPa, x1 = 0.1702 | 4.125
298.15 K, 101 kPa, x1 = 0.1881 | 4.44
298.15 K, 101 kPa, x1 = 0.1999 | 4.578
298.15 K, 101 kPa, x1 = 0.2205 | 4.804
298.15 K, 101 kPa, x1 = 0.2496 | 5.035
298.15 K, 101 kPa, x1 = 0.2697 | 5.12
298.15 K, 101 kPa, x1 = 0.2937 | 5.154
298.15 K, 101 kPa, x1 = 0.3053 | 5.1
298.15 K, 101 kPa, x1 = 0.3496 | 5.006
298.15 K, 101 kPa, x1 = 0.3959 | 4.59
298.15 K, 101 kPa, x1 = 0.3999 | 4.679
298.15 K, 101 kPa, x1 = 0.45 | 4.31
298.15 K, 101 kPa, x1 = 0.4954 | 3.77
298.15 K, 101 kPa, x1 = 0.4999 | 3.909
298.15 K, 101 kPa, x1 = 0.5941 | 3.07
298.15 K, 101 kPa, x1 = 0.6002 | 3.214
298.15 K, 101 kPa, x1 = 0.6917 | 2.55
298.15 K, 101 kPa, x1 = 0.7 | 2.676
298.15 K, 101 kPa, x1 = 0.786 | 2.18
298.15 K, 101 kPa, x1 = 0.7997 | 2.299
298.15 K, 101 kPa, x1 = 0.8859 | 1.9
298.15 K, 101 kPa, x1 = 0.8962 | 2.023
298.15 K, 101 kPa, x1 = 0.9498 | 1.908
298.15 K, 101.15 kPa, x1 = 0.0501 | 1.74
298.15 K, 101.15 kPa, x1 = 0.0701 | 2.137
298.15 K, 101.15 kPa, x1 = 0.1001 | 2.762
298.15 K, 101.15 kPa, x1 = 0.2004 | 4.555
298.15 K, 101.15 kPa, x1 = 0.3004 | 5.062
298.15 K, 101.15 kPa, x1 = 0.4012 | 4.505
298.15 K, 101.15 kPa, x1 = 0.503 | 3.729
298.15 K, 101.15 kPa, x1 = 0.5937 | 3.075
298.15 K, 101.15 kPa, x1 = 0.7023 | 2.503
298.15 K, 101.15 kPa, x1 = 0.9006 | 1.836
298.16 K, 101 kPa, x2 = 0.0836 | 1.84
298.16 K, 101 kPa, x2 = 0.1794 | 2.14
298.16 K, 101 kPa, x2 = 0.3006 | 2.72
298.16 K, 101 kPa, x2 = 0.4221 | 3.52
298.16 K, 101 kPa, x2 = 0.5466 | 4.45
298.16 K, 101 kPa, x2 = 0.6595 | 5.05
298.16 K, 101 kPa, x2 = 0.6861 | 5.04
298.16 K, 101 kPa, x2 = 0.7608 | 4.66
298.16 K, 101 kPa, x2 = 0.7976 | 4.23
298.16 K, 101 kPa, x2 = 0.8599 | 3.2
303.15 K, 101 kPa, x1 = 0.3001 | 4.365
303.15 K, 101 kPa, x1 = 0.899 | 1.705
308.15 K, 101 kPa, x1 = 0.02 | 0.9403
308.15 K, 101 kPa, x1 = 0.0505 | 1.375
308.15 K, 101 kPa, x1 = 0.1202 | 2.303
308.15 K, 101 kPa, x1 = 0.1702 | 2.895
308.15 K, 101 kPa, x1 = 0.1999 | 3.179
308.15 K, 101 kPa, x1 = 0.2205 | 3.323
308.15 K, 101 kPa, x1 = 0.2496 | 3.478
308.15 K, 101 kPa, x1 = 0.2697 | 3.539
308.15 K, 101 kPa, x1 = 0.2937 | 3.574
308.15 K, 101 kPa, x1 = 0.3202 | 3.591
308.15 K, 101 kPa, x1 = 0.3496 | 3.518
308.15 K, 101 kPa, x1 = 0.3999 | 3.351
308.15 K, 101 kPa, x1 = 0.45 | 3.147
308.15 K, 101 kPa, x1 = 0.4999 | 2.912
308.15 K, 101 kPa, x1 = 0.6002 | 2.487
308.15 K, 101 kPa, x1 = 0.7 | 2.138
308.15 K, 101 kPa, x1 = 0.7997 | 1.883
308.15 K, 101 kPa, x1 = 0.8962 | 1.691
313.15 K, 101.15 kPa, x1 = 0.0501 | 1.178
313.15 K, 101.15 kPa, x1 = 0.0701 | 1.402
313.15 K, 101.15 kPa, x1 = 0.1001 | 1.744
313.15 K, 101.15 kPa, x1 = 0.2004 | 2.684
313.15 K, 101.15 kPa, x1 = 0.3004 | 2.975
313.15 K, 101.15 kPa, x1 = 0.4012 | 2.777
313.15 K, 101.15 kPa, x1 = 0.503 | 2.44
313.15 K, 101.15 kPa, x1 = 0.5937 | 2.125
313.15 K, 101.15 kPa, x1 = 0.7023 | 1.818
313.15 K, 101.15 kPa, x1 = 0.8066 | 1.585
313.15 K, 101.15 kPa, x1 = 0.9006 | 1.43
318.15 K, 101 kPa, x1 = 0.0997 | 1.548
318.15 K, 101 kPa, x1 = 0.1202 | 1.73
318.15 K, 101 kPa, x1 = 0.1503 | 2.039
318.15 K, 101 kPa, x1 = 0.1702 | 2.13
318.15 K, 101 kPa, x1 = 0.1999 | 2.32
318.15 K, 101 kPa, x1 = 0.2205 | 2.417
318.15 K, 101 kPa, x1 = 0.2496 | 2.527
318.15 K, 101 kPa, x1 = 0.2697 | 2.572
318.15 K, 101 kPa, x1 = 0.2937 | 2.603
318.15 K, 101 kPa, x1 = 0.3202 | 2.623
318.15 K, 101 kPa, x1 = 0.3496 | 2.589
318.15 K, 101 kPa, x1 = 0.3999 | 2.503
318.15 K, 101 kPa, x1 = 0.45 | 2.387
318.15 K, 101 kPa, x1 = 0.4999 | 2.245
318.15 K, 101 kPa, x1 = 0.6002 | 1.977
318.15 K, 101 kPa, x1 = 0.7997 | 1.571
318.15 K, 101 kPa, x1 = 0.9498 | 1.375
323.15 K, 101 kPa, x1 = 0.6997 | 1.485
323.15 K, 101.15 kPa, x1 = 0.0501 | 0.942
323.15 K, 101.15 kPa, x1 = 0.0701 | 1.106
323.15 K, 101.15 kPa, x1 = 0.2004 | 1.995
323.15 K, 101.15 kPa, x1 = 0.4012 | 2.116
323.15 K, 101.15 kPa, x1 = 0.503 | 1.935
323.15 K, 101.15 kPa, x1 = 0.7023 | 1.509
323.15 K, 101.15 kPa, x1 = 0.8066 | 1.343
